According to patent US9861680B2, “Immunomodulators” (BRISTOL-MYERS SQUIBB COMPANY, priority 2014, dated 2018):
Numbered stars: 1 amine (or outer) side, 2 acyl side, 3 side chain; on linkers, the order of the positions; unused ones are H or OH. Bridge positions count the residues as written; N and C are the ends. Square brackets hold non-standard residues; d marks the D form. Peptide text beside a SMILES is read from it. X7 = COCCN([C@@H](C)C(=O)[*:2])[*:1]; X2 = C[C@@H](C(=O)[*:2])N(CCN)[*:1]; X1 = O=C(CN(CCC(F)(F)F)[*:1])[*:2]; Hyp = O=C(O)[C@@H]1C[C@@H](O)CN1; Gly(N-CH2CH2OH) = O=C(O)CNCCO; NMeNle = CCCC[C@H](NC)C(=O)O; NMeA = CN[C@@H](C)C(=O)O; Nphe = O=C(O)CNCc1ccccc1; Dab = NCC[C@H](N)C(=O)O; NEtG = CCNCC(=O)O

These compounds were tested against T1, PD-1-Ig binding to PD-L1-TVMV-His (PD-L1-His) (Homo sapiens, UniProt Q9NZQ7) (assay: PD-1/PD-L1 Homogenous Time-Resolved Fluorescence (HTRF) binding assay). Conditions: numeric value; PD-L1-His 10 nM, PD-1-Ig 20 nM.
T1 construct: hPDL1(19-239)-TVMV-His; made in house; host or cells: HEK293T
T1 sequence (Q9NZQ7 with tags, fused parts or gaps): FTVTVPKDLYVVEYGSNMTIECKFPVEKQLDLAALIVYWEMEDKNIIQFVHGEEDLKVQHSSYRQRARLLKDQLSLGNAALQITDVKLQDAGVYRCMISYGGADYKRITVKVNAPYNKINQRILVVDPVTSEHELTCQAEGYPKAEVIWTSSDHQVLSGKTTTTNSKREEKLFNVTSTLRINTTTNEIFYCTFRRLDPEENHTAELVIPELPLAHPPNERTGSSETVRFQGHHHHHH
Source text: Methods for Testing the Ability of Macrocyclic Peptides to Compete for the Binding of Pd-1 to Pd-L1 Using Homogenous Time-Resolved Fluorescence (HTRF) Binding Assays
The ability of the macrocyclic peptides of the present disclosure to bind to PD-L1 was investigated using a PD-1/PD-L1 Homogenous Time-Resolved Fluorescence (HTRF) binding assay.
Homogenous Time-Resolved Fluorescence (HTRF) Assays of Binding of Soluble PD-1 to Soluble PD-L1. Soluble PD-1 and soluble PD-L1 refers to proteins with carboxyl-end truncations that remove the transmembrane-spanning regions and are fused to heterologous sequences, specifically the Fc portion of the human immunoglobuling G sequence (Ig) or the hexahistidine epitope tag (His). All binding studies were performed in an HTRF assay buffer consisting of dPBS supplemented with 0.1% (w/v) bovine serum albumin and 0.05% (v/v) Tween-20. For the PD-1-Ig/PD-L1-His binding assay, inhibitors were pre-incubated with PD-L1-His (10 nM final) for 15 m in 4 μl of assay buffer, followed by addition of PD-1-Ig (20 nM final) in 1 μl of assay buffer and further incubation for 15 m. PD-L1 fusion proteins from either human, cynomologous macaques, mouse, or other species were used. HTRF detection was achieved using europium crypate-labeled anti-Ig monoclonal antibody (1 nM final) and allophycocyanin (APC) labeled anti-His monoclonal antibody (20 nM final). Antibodies were diluted in HTRF detection buffer and 5 μl was dispensed on top of binding reaction. The reaction was allowed to equilibrate for 30 minutes and signal (665 nm/620 nm ratio) was obtained using an EnVision fluorometer. Additional binding assays were established between PD-1-Ig/PD-L2-His (20 and 5 nM, respectively), CD80-His/PD-L1-Ig (100 and 10 nM, respectively) and CD80-His/CTLA4-Ig (10 and 5 nM, respectively). Binding/competition studies between biotinylated Compound No. 71 and human PD-L1-His were performed as follows. Macrocyclic peptide inhibitors were pre-incubated with PD-L1-His (10 nM final) for 60 minutes in 4 μl of assay buffer followed by addition of biotinylated Compound No. 71 (0.5 nM final) in 1 μl of assay buffer. Binding was allowed to equilibrate for 30 minutes followed by addition of europium crypated labeled Streptavidin (2.5 pM final) and APC-labeled anti-His (20 nM final) in 5 μl of HTRF buffer. The reaction was allowed to equilibrate for 30 m and signal (665 nm/620 nm ratio) was obtained using an EnVision fluorometer.
Recombinant Proteins. Carboxyl-truncated human PD-1 (amino acids 25-167) with a C-terminal human Ig epitope tag [hPD-1 (25-167)-3S-IG] and human PD-L1 (amino acids 18-239) with a C-terminal His epitope tag [hPD-L1(19-239)-tobacco vein mottling virus protease cleavage site (TVMV)-His] were expressed in HEK293T cells and purified sequentially by recombinant Protein A affinity chromatography and size exclusion chromatography. Human PD-L2-His (Sino Biologicals), CD80-His (Sino Biologicals), CTLA4-Ig (RnD Systems) were all obtained through commercial sources.
Ranges are as follows: A=0.10-10 μM; B=0.01-0.099 μM; C=0.005-0.0099 μM.

| Compound | IC50 [nM] |
| --- | --- |
| CCCC[C@H]1C(=O)N(C)[C@@H](CCCC)C(=O)N[C@@H](CC(C)C)C(=O)N[C@H](C(=O)NCC(N)=O)CSCC(=O)N[C@@H](Cc2ccc(O)cc2)C(=O)N(C)[C@@H](C)C(=O)N[C@@H](CC(N)=O)C(=O)N(Cc2ccccc2)CC(=O)N[C@@H](Cc2cnc[nH]2)C(=O)N[C@@H](CCC(=O)O)C(=O)N2C[C@H](O)C[C@H]2C(=O)N[C@@H](Cc2c[nH]c3ccccc23)C(=O)N[C@@H](CCN)C(=O)N[C@@H](Cc2c[nH]c3ccccc23)C(=O)N1C [Example 3008] ({CH2CO}-Y[NMeA]N[Nphe]HE[Hyp]W[Dab]W[NMeNle][NMeNle]LCG-NH2; thioether N-14) | 200 |

Same assay, conditions: range class; PD-L1-His 10 nM, PD-1-Ig 20 nM

| Compound | IC50 [nM] |
| --- | --- |
| CCCC[C@H]1C(=O)N(C)[C@@H](CCCC)C(=O)N[C@@H](CC(C)C)C(=O)N[C@H](C(=O)NCC(N)=O)CSCC(=O)N[C@@H](Cc2ccc(O)cc2)C(=O)N(C)[C@@H](C)C(=O)N[C@@H](CC(N)=O)C(=O)N2CCC[C@H]2C(=O)N[C@@H](Cc2cnc[nH]2)C(=O)N[C@@H](CCC(=O)O)C(=O)N(CCC(F)(F)F)CC(=O)N[C@@H](Cc2c[nH]c3ccccc23)C(=O)N[C@@H](CCN)C(=O)N[C@@H](Cc2c[nH]c3ccccc23)C(=O)N1C [Example 3007] ({CH2CO}-Y[NMeA]NPHE[X1]W[Dab]W[NMeNle][NMeNle]LCG-NH2; thioether N-14) | 10 to 99 |
| CCCC[C@H]1C(=O)N[C@@H](CC(C)C)C(=O)N[C@H](C(=O)NCC(N)=O)CSCC(=O)N[C@@H](Cc2ccc(O)cc2)C(=O)N(C)[C@@H](C)C(=O)N[C@@H](CC(N)=O)C(=O)N2CCC[C@H]2C(=O)N[C@@H](Cc2cnc[nH]2)C(=O)N[C@@H](CCC(=O)O)C(=O)N2C[C@H](O)C[C@H]2C(=O)N[C@@H](Cc2c[nH]c3ccccc23)C(=O)N[C@@H](CCN)C(=O)N[C@@H](Cc2c[nH]c3ccccc23)C(=O)N(CCN)[C@@H](C)C(=O)N1C [Example 3022] ({CH2CO}-Y[NMeA]NPHE[Hyp]W[Dab]W[X2][NMeNle]LCG-NH2; thioether N-14) | 10 to 99 |
| CCCC[C@H]1C(=O)N(C)[C@@H](CCCC)C(=O)N[C@@H](CC(C)C)C(=O)N[C@H](C(=O)NCC(N)=O)CSCC(=O)N[C@@H](Cc2ccc(O)cc2)C(=O)N(C)[C@@H](C)C(=O)N[C@@H](CC(N)=O)C(=O)N(CCC(F)(F)F)CC(=O)N[C@@H](Cc2cnc[nH]2)C(=O)N[C@@H](CCC(=O)O)C(=O)N2C[C@H](O)C[C@H]2C(=O)N[C@@H](Cc2c[nH]c3ccccc23)C(=O)N[C@@H](CCN)C(=O)N[C@@H](Cc2c[nH]c3ccccc23)C(=O)N1C [Example 3010] ({CH2CO}-Y[NMeA]N[X1]HE[Hyp]W[Dab]W[NMeNle][NMeNle]LCG-NH2; thioether N-14) | 10 to 99 |
| CCCC[C@H]1C(=O)N(C)[C@@H](CCCC)C(=O)N[C@@H](CC(C)C)C(=O)N[C@H](C(=O)NCC(N)=O)CSCC(=O)N[C@@H](Cc2ccc(O)cc2)C(=O)N(C)[C@@H](C)C(=O)N[C@@H](CC(N)=O)C(=O)N(CC)CC(=O)N[C@@H](Cc2cnc[nH]2)C(=O)N[C@@H](CCC(=O)O)C(=O)N2C[C@H](O)C[C@H]2C(=O)N[C@@H](Cc2c[nH]c3ccccc23)C(=O)N[C@@H](CCN)C(=O)N[C@@H](Cc2c[nH]c3ccccc23)C(=O)N1C [Example 3013] ({CH2CO}-Y[NMeA]N[NEtG]HE[Hyp]W[Dab]W[NMeNle][NMeNle]LCG-NH2; thioether N-14) | 10 to 99 |
| CCCC[C@H]1C(=O)N(C)[C@@H](CCCC)C(=O)N[C@@H](CC(C)C)C(=O)N[C@H](C(=O)NCC(N)=O)CSCC(=O)N[C@@H](Cc2ccc(O)cc2)C(=O)N(C)[C@@H](C)C(=O)N[C@@H](CC(N)=O)C(=O)N(CC(=O)O)CC(=O)N[C@@H](Cc2cnc[nH]2)C(=O)N[C@@H](CCC(=O)O)C(=O)N2C[C@H](O)C[C@H]2C(=O)N[C@@H](Cc2c[nH]c3ccccc23)C(=O)N[C@@H](CCN)C(=O)N[C@@H](Cc2c[nH]c3ccccc23)C(=O)N1C [Example 3015] | 10 to 99 |
| CCCC[C@H]1C(=O)N(C)[C@@H](CCCC)C(=O)N[C@@H](CC(C)C)C(=O)N[C@H](C(=O)NCC(N)=O)CSCC(=O)N[C@@H](Cc2ccc(O)cc2)C(=O)N(C)[C@@H](C)C(=O)N[C@@H](CC(N)=O)C(=O)N(CC(=O)O)CC(=O)N[C@@H](Cc2c[nH]cn2)C(=O)N[C@@H](CCC(=O)O)C(=O)N2C[C@H](O)C[C@H]2C(=O)N[C@@H](Cc2c[nH]c3ccccc23)C(=O)N[C@@H](CCN)C(=O)N[C@@H](Cc2csc3ccccc23)C(=O)N1C [Example 5002] | 5 to 9.9 |
| CCCC[C@H]1C(=O)N(C)[C@@H](CCCC)C(=O)N[C@@H](CC(C)C)C(=O)N[C@H](C(=O)NCC(N)=O)CSCC(=O)N[C@@H](Cc2ccc(O)cc2)C(=O)N(C)[C@@H](C)C(=O)N[C@@H](CC(N)=O)C(=O)N2CCC[C@H]2C(=O)N[C@@H](Cc2cnc[nH]2)C(=O)N[C@@H](CCC(=O)O)C(=O)N(Cc2ccccc2)CC(=O)N[C@@H](Cc2c[nH]c3ccccc23)C(=O)N[C@@H](CCN)C(=O)N[C@@H](Cc2c[nH]c3ccccc23)C(=O)N1C [Example 3004] ({CH2CO}-Y[NMeA]NPHE[Nphe]W[Dab]W[NMeNle][NMeNle]LCG-NH2; thioether N-14) | 10 to 99 |
| CCCC[C@H]1C(=O)N(C)[C@@H](CCCC)C(=O)N[C@@H](CC(C)C)C(=O)N[C@H](C(=O)NCC(N)=O)CSCC(=O)N[C@@H](Cc2ccc(O)cc2)C(=O)N(CCN)[C@@H](C)C(=O)N[C@@H](CC(N)=O)C(=O)N2CCC[C@H]2C(=O)N[C@@H](Cc2cnc[nH]2)C(=O)N[C@@H](CCC(=O)O)C(=O)N2C[C@H](O)C[C@H]2C(=O)N[C@@H](Cc2c[nH]c3ccccc23)C(=O)N[C@@H](CCN)C(=O)N[C@@H](Cc2c[nH]c3ccccc23)C(=O)N1C [Example 3032] ({CH2CO}-Y[X2]NPHE[Hyp]W[Dab]W[NMeNle][NMeNle]LCG-NH2; thioether N-14) | 10 to 99 |
| CCCC[C@H]1C(=O)N[C@@H](CC(C)C)C(=O)N[C@H](C(=O)NCC(N)=O)CSCC(=O)N[C@@H](Cc2ccc(O)cc2)C(=O)N(C)[C@@H](C)C(=O)N[C@@H](CC(N)=O)C(=O)N2CCC[C@H]2C(=O)N[C@@H](Cc2cnc[nH]2)C(=O)N[C@@H](CCC(=O)O)C(=O)N2C[C@H](O)C[C@H]2C(=O)N[C@@H](Cc2c[nH]c3ccccc23)C(=O)N[C@@H](CCN)C(=O)N[C@@H](Cc2c[nH]c3ccccc23)C(=O)N(CCOC)[C@@H](C)C(=O)N1C [Example 3025] ({CH2CO}-Y[NMeA]NPHE[Hyp]W[Dab]W[X7][NMeNle]LCG-NH2; thioether N-14) | 10 to 99 |
| CCCC[C@H]1C(=O)N(C)[C@@H](CCCC)C(=O)N[C@@H](CC(C)C)C(=O)N[C@H](C(=O)NCC(N)=O)CSCC(=O)N[C@@H](Cc2ccc(O)cc2)C(=O)N(C)[C@@H](C)C(=O)N[C@@H](CC(N)=O)C(=O)N2CCC[C@H]2C(=O)N[C@@H](Cc2cnc[nH]2)C(=O)N[C@@H](CCC(=O)O)C(=O)N(CCO)CC(=O)N[C@@H](Cc2c[nH]c3ccccc23)C(=O)N[C@@H](CCN)C(=O)N[C@@H](Cc2c[nH]c3ccccc23)C(=O)N1C [Example 3012] ({CH2CO}-Y[NMeA]NPHE[Gly(N-CH2CH2OH)]W[Dab]W[NMeNle][NMeNle]LCG-NH2; thioether N-14) | 10 to 99 |
| CCCC[C@H]1C(=O)N[C@@H](CC(C)C)C(=O)N[C@H](C(=O)NCC(N)=O)CSCC(=O)N[C@@H](Cc2ccc(O)cc2)C(=O)N(C)[C@@H](C)C(=O)N[C@@H](CC(N)=O)C(=O)N2CCC[C@H]2C(=O)N[C@@H](Cc2cnc[nH]2)C(=O)N[C@@H](CCC(=O)O)C(=O)N2C[C@H](O)C[C@H]2C(=O)N[C@@H](Cc2c[nH]c3ccccc23)C(=O)N[C@@H](CCN)C(=O)N[C@@H](Cc2c[nH]c3ccccc23)C(=O)N(CC(=O)O)[C@@H](C)C(=O)N1C [Example 3028] | 100 to 10000 |
